According to patent publication US20250268873A1, “COMBINATION OF DUAL ATM AND DNA-PK INHIBITORS AND IMMUNOTHERAPEUTIC AGENTS FOR USE IN CANCER THERAPY” (XRAD THERAPEUTICS, INC., priority 2021, published 2025):

How the values were obtained:
FADU tumors = experiment: In vivo tumor growth delay study, FADU subcutaneous human xenograft mouse model
Experimental: (§1) Female NCr nu/nu mice (Crl:NU(NCr)-Foxn1nu, Strain 490) were obtained from Charles River at 5-6 weeks of age.
(§2) FADU or MDA-MB-231 cells were harvested during log phase growth for in vivo implantation. The resuspended cells were washed three times in phosphate buffered saline (PBS) before preparing the working dilution in PBS. FADU cells were diluted to 1×10^7 cells/mL and MDA-MB-231 cells were diluted to 5×10^7 cells/mL. Each mouse was injected subcutaneously in the right flank with 100 μL of the cellular suspension. Tumor growth was monitored until the tumors reached a target volume of at least 100 mm^3, at which point mice were randomly stratified into four treatment groups.
(§3) Following implantation of the tumor cell lines, mice were monitored once weekly for tumor development. Upon detection, tumors were measured in two dimensions using digital calipers. Tumors were treated after reaching at least 100 mm^3 and were measured two to three times weekly following enrollment in one of the treatment groups. The study endpoint was defined as tumor quintupling from the volume at time of treatment.
(§4) The vehicle used in this study was 0.5% (Hydroxypropyl)methyl cellulose (HPMC) and 0.2% Tween80 dissolved in deionized water. The pH of the vehicle was adjusted to 7.0-8.0 and the vehicle was stored at 4° C. On each day of in vivo treatment an appropriate mass of test compound was added to the vehicle at room temperature. The mixture was vortexed as necessary to generate a final concentration of 1.6 mg/mL.
(§5) In vivo tumor growth delay study was performed as follows. Following implantation of the tumor cell lines, mice were monitored once weekly for tumor development. Upon development of a tumor measuring at least 100 mm^3, tumor-bearing mice were stratified to one of 4 groups, utilizing 5 mice per group. Tumor volumes were between 100 and 500 mm^3. Vehicle or compound 569 (10 mg/kg) were administered by oral gavage once daily for three consecutive days (qd×3), alone or in combination with focal radiation. The delivered volume of vehicle or compound 569 was adjusted based on body weight of the individual animals. […]
(§6) Prism (GraphPad) was used for graphical presentations. […] In order to adjust for the differing tumor sizes at the start of treatment, the relative tumor volume was calculated by dividing the tumor volume at each time point by the volume at baseline. […] When an animal exited the study due to tumor quintupling, the final tumor volume recorded for the animal was included with the data used to calculate the median volume at subsequent time points. […] Differences in quintupling-free survival between the four treatment groups were evaluated with a log-rank test. […]

ATM = ATM (Homo sapiens (Human), UniProt Q13315); experiment: Pharmacodynamic assay, pKAP1/KAP1 in FADU tumors; assay type: in vivo; conditions: for pKAP1/KAP1: FADU tumors
Chain of ATM (Q13315 whole entry): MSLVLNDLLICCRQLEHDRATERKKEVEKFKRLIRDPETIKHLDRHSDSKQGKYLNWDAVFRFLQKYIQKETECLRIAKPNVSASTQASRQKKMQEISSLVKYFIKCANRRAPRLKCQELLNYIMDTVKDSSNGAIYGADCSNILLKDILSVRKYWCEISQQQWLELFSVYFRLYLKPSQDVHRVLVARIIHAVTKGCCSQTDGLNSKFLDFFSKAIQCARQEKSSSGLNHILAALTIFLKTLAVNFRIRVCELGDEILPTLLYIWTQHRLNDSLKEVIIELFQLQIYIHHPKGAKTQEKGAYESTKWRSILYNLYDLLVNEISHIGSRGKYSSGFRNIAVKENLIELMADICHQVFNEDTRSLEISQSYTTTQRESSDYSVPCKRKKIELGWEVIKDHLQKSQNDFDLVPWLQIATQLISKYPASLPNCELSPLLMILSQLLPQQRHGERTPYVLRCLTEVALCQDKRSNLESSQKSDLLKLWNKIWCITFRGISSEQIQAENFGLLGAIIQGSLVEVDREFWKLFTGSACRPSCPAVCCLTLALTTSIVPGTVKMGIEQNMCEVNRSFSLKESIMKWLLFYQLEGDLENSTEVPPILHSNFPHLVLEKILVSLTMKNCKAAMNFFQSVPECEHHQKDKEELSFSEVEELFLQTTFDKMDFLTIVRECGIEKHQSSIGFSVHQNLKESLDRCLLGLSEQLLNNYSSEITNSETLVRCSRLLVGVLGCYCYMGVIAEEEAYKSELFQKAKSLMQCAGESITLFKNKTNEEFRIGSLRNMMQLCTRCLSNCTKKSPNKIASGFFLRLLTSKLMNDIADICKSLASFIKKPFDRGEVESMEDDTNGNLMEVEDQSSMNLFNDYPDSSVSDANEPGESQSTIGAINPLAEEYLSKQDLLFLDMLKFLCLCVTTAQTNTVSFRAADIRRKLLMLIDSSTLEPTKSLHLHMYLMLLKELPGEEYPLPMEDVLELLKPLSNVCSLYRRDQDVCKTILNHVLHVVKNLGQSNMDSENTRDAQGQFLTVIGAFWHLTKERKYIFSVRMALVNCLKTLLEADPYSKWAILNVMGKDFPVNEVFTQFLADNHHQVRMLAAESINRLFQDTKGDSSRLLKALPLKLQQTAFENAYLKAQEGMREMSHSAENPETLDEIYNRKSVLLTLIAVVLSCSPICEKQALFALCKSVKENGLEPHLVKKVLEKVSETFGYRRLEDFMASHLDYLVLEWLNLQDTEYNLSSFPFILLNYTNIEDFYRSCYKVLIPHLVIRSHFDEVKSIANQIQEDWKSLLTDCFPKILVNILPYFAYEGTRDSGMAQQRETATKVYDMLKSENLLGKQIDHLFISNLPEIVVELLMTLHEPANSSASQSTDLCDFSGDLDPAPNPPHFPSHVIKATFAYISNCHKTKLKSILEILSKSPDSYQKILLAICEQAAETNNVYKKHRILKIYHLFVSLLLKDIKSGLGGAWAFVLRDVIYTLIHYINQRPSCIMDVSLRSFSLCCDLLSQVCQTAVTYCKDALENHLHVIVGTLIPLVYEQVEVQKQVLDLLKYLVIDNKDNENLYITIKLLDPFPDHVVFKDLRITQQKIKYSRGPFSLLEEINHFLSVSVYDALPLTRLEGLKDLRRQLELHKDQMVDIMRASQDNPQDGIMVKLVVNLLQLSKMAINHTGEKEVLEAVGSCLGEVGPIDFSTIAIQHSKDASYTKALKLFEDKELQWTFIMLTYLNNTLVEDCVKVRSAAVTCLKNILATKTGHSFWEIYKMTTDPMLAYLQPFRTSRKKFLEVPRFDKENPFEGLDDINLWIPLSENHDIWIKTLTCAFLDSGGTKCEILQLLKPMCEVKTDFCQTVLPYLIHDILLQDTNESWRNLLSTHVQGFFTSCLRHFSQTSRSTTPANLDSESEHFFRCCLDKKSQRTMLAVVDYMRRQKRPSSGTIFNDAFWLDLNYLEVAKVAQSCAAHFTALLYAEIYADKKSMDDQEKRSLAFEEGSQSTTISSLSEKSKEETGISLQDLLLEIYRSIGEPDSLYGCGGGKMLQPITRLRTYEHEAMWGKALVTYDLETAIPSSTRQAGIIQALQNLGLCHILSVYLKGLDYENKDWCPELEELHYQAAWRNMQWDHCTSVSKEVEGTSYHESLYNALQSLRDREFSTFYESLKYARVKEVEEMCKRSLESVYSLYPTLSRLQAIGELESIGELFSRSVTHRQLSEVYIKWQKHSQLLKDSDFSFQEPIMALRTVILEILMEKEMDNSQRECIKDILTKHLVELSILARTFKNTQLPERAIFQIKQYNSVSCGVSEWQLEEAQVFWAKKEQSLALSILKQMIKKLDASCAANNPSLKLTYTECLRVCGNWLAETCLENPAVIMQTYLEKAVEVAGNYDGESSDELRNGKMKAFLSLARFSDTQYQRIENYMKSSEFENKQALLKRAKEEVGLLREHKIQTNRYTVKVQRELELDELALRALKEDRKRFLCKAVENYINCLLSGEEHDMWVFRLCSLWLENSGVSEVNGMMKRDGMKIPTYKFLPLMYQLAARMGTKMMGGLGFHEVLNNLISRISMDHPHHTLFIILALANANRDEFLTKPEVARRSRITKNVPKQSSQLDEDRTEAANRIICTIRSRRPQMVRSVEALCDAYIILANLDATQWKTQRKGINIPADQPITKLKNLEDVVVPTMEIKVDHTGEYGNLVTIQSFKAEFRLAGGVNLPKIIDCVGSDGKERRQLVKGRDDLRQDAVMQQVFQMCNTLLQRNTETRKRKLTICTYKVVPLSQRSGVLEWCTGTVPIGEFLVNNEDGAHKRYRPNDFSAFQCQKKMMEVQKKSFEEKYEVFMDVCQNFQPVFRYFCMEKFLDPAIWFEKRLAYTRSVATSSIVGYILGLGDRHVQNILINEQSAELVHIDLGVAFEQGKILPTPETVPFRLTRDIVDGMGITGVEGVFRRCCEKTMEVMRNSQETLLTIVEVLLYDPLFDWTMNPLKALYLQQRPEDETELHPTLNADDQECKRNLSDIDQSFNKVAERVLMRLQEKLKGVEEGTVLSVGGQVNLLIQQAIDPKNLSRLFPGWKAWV
Experimental: as §2
(§7) Tumor studies were performed as follows. Mice bearing FADU or MDA-231 tumors were pre-dosed with vehicle alone or compound 569 alone at 3, 6, and 10 mg/kg. Tumors were then irradiated with 10 Gy 45 min after vehicle or compound 569 administration or left unirradiated (vehicle and compound 569 at 10 mg/kg). Tumors were harvested 1 h post radiation.
(§8) Tissue homogenates for pharmacodynamic analyses were collected and processed as follows. Tumor tissues from FADU or MDA-MB-231 tumors were flash frozen in liquid nitrogen and pulverized on dry ice using a tissue pulverizer. A portion of the tumor powder was transferred into a microtube, followed by addition of 500 μL of RIPA buffer [[…], pH 8.0, 150 mM NaCl, 0.1% SDS, 0.5% sodium deoxycholate, 1% IGEPAL® CA-630 (Sigma, I8896)]. To 10 ml of RIPA buffer, 2 tablets each of Protease inhibitor and Phosphatase inhibitor (Roche, #04693159001 & #04906837001), 200 μL of 0.1 M PMSF and 160 μL of Aprotinin, (Sigma, A6279) were added. The suspension was homogenized on ice with a pellet pestle motor (KONTES) and incubated on ice for 30 minutes. Cell lysates were centrifuged at 13,200 rpm for 15 min at 4° C. and supernatants were transferred to a new tube and analyzed for protein concentration with a BCA kit (Pierce, 23227), followed by immunoblotting.

DNA-PK = DNA-PK (Homo sapiens (Human), UniProt P78527); experiment: Pharmacodynamic assay, pDNA-PK/DNA-PK in FADU tumors; assay type: in vivo; conditions: for pDNA-PK/DNA-PK: FADU tumors
Experimental: as §2, §7, §8

MDA-MB-231 tumors = experiment: In vivo tumor growth delay study, MDA-MB-231 subcutaneous human xenograft mouse model
Experimental: as §1, §2, §3, §4, §5, §6

[1] = Group 4: compound 569 10 mg/kg 45 min prior to 3 Gy focal radiation, qd×3
[2] = Group 4: compound 569 + 3 Gy qd×3, P<0.01, logrank

CC(C)NCCOc1ncc(-c2cc3c4c(cnc3cc2F)N(C)C(=O)C42CCC2)cc1NS(C)(=O)=O [Compound 569, N-(5-(7′-Fluoro-3′-methyl-2′-oxo-2′,3′-dihydrospiro[cyclobutane-1,1′-pyrrolo[2,3-c]quinolin]-8′-yl)-2-(2-(isopropylamino)ethoxy)pyridin-3-yl)methanesulfonamide]
median time to endpoint (tumor quintupling) (FADU tumors; Group 2: Compound 569 10 mg/kg po qd×3 alone): 14 days
tumor growth curves and quintupling-free survival (FADU tumors; Group 2: Compound 569 10 mg/kg qd×3 alone vs vehicle (Group 1)): nearly identical to those for Group 1
median time to endpoint (tumor quintupling) (FADU tumors; [1]): 42 days
overall survival (quintupling-free) (FADU tumors; [2]): significantly improved compared to Group 1, Group 2, and Group 3
inhibition at 10 mg/kg (ATM; 10 mg/kg, 10 Gy, FADU and MDA231 tumors (FIGS. 4 and 5), read-out: inhibition of tumor levels of radiation-induced phosphorylation of KAP1): > 80%
pKAP1/KAP1 (ATM; 10 Gy, 3 mg/kg oral): 0.0903
pKAP1/KAP1 (ATM; 10 Gy, 6 mg/kg oral): 0.0982
pKAP1/KAP1 (ATM; 10 Gy, 10 mg/kg oral): 0.156
pKAP1/KAP1 (ATM; no radiation, 10 mg/kg oral): 0.00595
inhibition at 10 mg/kg (DNA-PK; 10 mg/kg, 10 Gy, FADU and MDA231 tumors (FIGS. 4 and 5), read-out: inhibition of tumor levels of radiation-induced autophosphorylation of DNA-PK): ~55%
pDNA-PK/DNA-PK (DNA-PK; 10 Gy, 3 mg/kg oral): 0.938
pDNA-PK/DNA-PK (DNA-PK; 10 Gy, 6 mg/kg oral): 0.658
pDNA-PK/DNA-PK (DNA-PK; 10 Gy, 10 mg/kg oral): 0.476
pDNA-PK/DNA-PK (DNA-PK; no radiation, 10 mg/kg oral): 0.343
basal phosphorylation of DNA-PK in tumors (DNA-PK; no radiation, 10 mg/kg): inhibited
median time to endpoint (tumor quintupling) (MDA-MB-231 tumors; Group 2: compound 569 10 mg/kg po qd×3 alone): 17 days
tumor growth curves and quintupling-free survival (MDA-MB-231 tumors; Group 2: compound 569 10 mg/kg qd×3 alone vs vehicle (Group 1)): nearly identical to those for Group 1
median time to endpoint (tumor quintupling) (MDA-MB-231 tumors; [1]): 43 days
overall survival (quintupling-free) (MDA-MB-231 tumors; [2]): significantly improved compared to Group 1, Group 2, and Group 3
